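Test compounds were applied to cells in 96-well plates for 48 hours at 5 doses. The concentration for 50% growth inhibition is given as GI50.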 Activity calls are given as the source filed them. Rule as the data show it: active = GI50 up to about 1.1 µM and inactive = higher.
Assays:
Assay in all cases: NCI-60 cell line screen, 48 h
T47D = system: T47D
PC-3 = system: PC-3
DU-145 = system: DU-145
UACC-257 = system: UACC-257
SK-OV-3 = system: SK-OV-3
MOLT-4 = system: MOLT-4
BT-549 = system: BT-549
CAKI-1 = system: CAKI-1
NCI/ADR-RES = system: NCI/ADR-RES
NCI-H226 = system: NCI-H226
HCT-15 = system: HCT-15
786-0 = system: 786-0
SN12C = system: SN12C
MDA-N = system: MDA-N
Hs-578T = system: Hs-578T
HL-60 = system: HL-60

| Structure (SMILES) | GI50 (T47D) | GI50 (PC-3) | GI50 (DU-145) | GI50 (UACC-257) | GI50 (SK-OV-3) | GI50 (MOLT-4) | GI50 (BT-549) | GI50 (CAKI-1) | GI50 (NCI/ADR-RES) | GI50 (NCI-H226) | GI50 (HCT-15) [µM] | GI50 (786-0) | GI50 (SN12C) | GI50 (MDA-N) | GI50 (Hs-578T) | GI50 (HL-60) |
| --- | --- | --- | --- | --- | --- | --- | --- | --- | --- | --- | --- | --- | --- | --- | --- | --- |
| N#Cc1ccsc1Nc1ccccc1[N+](=O)[O-] | > 100 µM (inactive) | > 100 µM (inactive) | > 100 µM (inactive) | > 100 µM (inactive) | > 100 µM (inactive) | > 100 µM (inactive) | 38.5 µM (inactive) | > 100 µM (inactive) | > 100 µM (inactive) | > 100 µM (inactive) | > 100 | > 100 µM (inactive) | > 100 µM (inactive) | > 100 µM (inactive) |  |  |
| O=C(Nc1ccc(F)cc1)c1cc2c(cc1Cl)Sc1nccn1S2(=O)=O | 45.9 µM (inactive) | 90.6 µM (inactive) | > 100 µM (inactive) |  | 94.6 µM (inactive) | > 100 µM (inactive) |  | 30.7 µM (inactive) | > 100 µM (inactive) | > 100 µM (inactive) | 81.7 | 28.2 µM (inactive) | 51.2 µM (inactive) | > 100 µM (inactive) | 30.8 µM (inactive) |  |
| COc1ccc2c(c1)C(=O)CC(C(N)=O)C2 (centres undefined) | > 100 µM (inactive) | > 100 µM (inactive) | > 100 µM (inactive) | > 100 µM (inactive) | > 100 µM (inactive) | > 100 µM (inactive) | > 100 µM (inactive) | > 100 µM (inactive) | > 100 µM (inactive) | > 100 µM (inactive) | > 100 | > 100 µM (inactive) | > 100 µM (inactive) |  | > 100 µM (inactive) | > 100 µM (inactive) |
| CCC(CC)C(=O)OC[n+]1ccc(-c2c(COC(=O)NC(C)C)c(COC(=O)NC(C)C)c3n2CCC3)cc1 |  | > 100 µM (inactive) |  | > 100 µM (inactive) | > 100 µM (inactive) | > 100 µM (inactive) | > 100 µM (inactive) | > 100 µM (inactive) | > 100 µM (inactive) | > 100 µM (inactive) | > 100 | > 100 µM (inactive) | > 100 µM (inactive) | > 100 µM (inactive) | > 100 µM (inactive) | > 100 µM (inactive) |
| O=C1CCCSC(=O)N1Cc1ccccc1 | > 100 µM (inactive) | > 100 µM (inactive) | > 100 µM (inactive) | > 100 µM (inactive) | > 100 µM (inactive) | > 100 µM (inactive) |  | > 100 µM (inactive) | > 100 µM (inactive) | > 100 µM (inactive) | > 100 | > 100 µM (inactive) | > 100 µM (inactive) | > 100 µM (inactive) | > 100 µM (inactive) | > 100 µM (inactive) |
| C/C(Cl)=N\OC(=O)Nc1ccccc1C(F)(F)F | 80.2 µM (inactive) | > 100 µM (inactive) | > 100 µM (inactive) | > 100 µM (inactive) | > 100 µM (inactive) | 18.5 µM (inactive) |  | > 100 µM (inactive) | 19.3 µM (inactive) |  | > 100 | 17.9 µM (inactive) | > 100 µM (inactive) | 16.4 µM (inactive) | > 100 µM (inactive) | 3.5 µM (inactive) |
| O=C(C/C=C/c1ccccc1)c1ccccc1 | 16.9 µM (inactive) |  | 16 µM (inactive) | 21.9 µM (inactive) | 49.5 µM (inactive) | 20.8 µM (inactive) |  | 17 µM (inactive) | 15.3 µM (inactive) | 29.5 µM (inactive) | 18.8 | 21.6 µM (inactive) | 24.3 µM (inactive) | 19.8 µM (inactive) | 21.8 µM (inactive) | 16.1 µM (inactive) |
| O=C1c2cc3c(cc2CC12Cc1cc4c(cc1C2)CCC4)CCC3 | > 100 µM (inactive) | > 100 µM (inactive) | > 100 µM (inactive) | > 100 µM (inactive) | > 100 µM (inactive) | 49 µM (inactive) |  | > 100 µM (inactive) | > 100 µM (inactive) |  | > 100 | > 100 µM (inactive) | > 100 µM (inactive) | > 100 µM (inactive) | > 100 µM (inactive) | 59.6 µM (inactive) |
| COc1ccc(C(C2=C(O)COC2=O)c2cc3c(cc2O)OCO3)cc1OC (centres undefined) |  | > 100 µM (inactive) | > 100 µM (inactive) | > 100 µM (inactive) | > 100 µM (inactive) | > 100 µM (inactive) | > 100 µM (inactive) | > 100 µM (inactive) | > 100 µM (inactive) | > 100 µM (inactive) | > 100 | > 100 µM (inactive) | > 100 µM (inactive) | > 100 µM (inactive) | > 100 µM (inactive) | > 100 µM (inactive) |
| Cc1cc2c(cc1C(=O)CCC(=O)O)CC1(C2)Cc2cc(C)c(C(=O)CCC(=O)O)cc2C1 | > 100 µM (inactive) | > 100 µM (inactive) | > 100 µM (inactive) | > 100 µM (inactive) | > 100 µM (inactive) | > 100 µM (inactive) |  | > 100 µM (inactive) | > 100 µM (inactive) | > 100 µM (inactive) | > 100 | > 100 µM (inactive) | > 100 µM (inactive) | > 100 µM (inactive) | > 100 µM (inactive) | > 100 µM (inactive) |
| Nc1ccc(C2NC(=O)Cc3c2ccc2ccccc32)cc1 (centres undefined) | 34.1 µM (inactive) | 45.8 µM (inactive) | > 100 µM (inactive) | > 100 µM (inactive) | > 100 µM (inactive) | > 100 µM (inactive) |  | 79.4 µM (inactive) |  | 34.4 µM (inactive) | 84.1 |  |  | 67.5 µM (inactive) | 46.5 µM (inactive) | 35.2 µM (inactive) |
| CC(=O)O/N=C/c1c2ccccc2cc2ccccc12 | 81.7 µM (inactive) | > 100 µM (inactive) | > 100 µM (inactive) | > 100 µM (inactive) | 22.2 µM (inactive) | > 100 µM (inactive) |  | 82.4 µM (inactive) | 56.8 µM (inactive) | 46.9 µM (inactive) | 56.1 |  | 65.3 µM (inactive) |  | 67.1 µM (inactive) | > 100 µM (inactive) |
| CCOC(=O)CNC(=O)C(C)NC(=O)C(NC(=O)CC(c1ncc[nH]1)c1ncc[nH]1)C(C)CC (centres undefined) | > 100 µM (inactive) |  | > 100 µM (inactive) | > 100 µM (inactive) | > 100 µM (inactive) | > 100 µM (inactive) |  | > 100 µM (inactive) | > 100 µM (inactive) |  | > 100 | > 100 µM (inactive) | > 100 µM (inactive) | > 100 µM (inactive) | > 100 µM (inactive) | > 100 µM (inactive) |
| CSc1nc(NCc2ccccc2)c2cnn(COCCO)c2n1 | 53.7 µM (inactive) | 58.1 µM (inactive) | 64.3 µM (inactive) | 20.3 µM (inactive) | > 100 µM (inactive) | 26.3 µM (inactive) | 35.7 µM (inactive) | 61.9 µM (inactive) | 53 µM (inactive) | 55.5 µM (inactive) |  | > 100 µM (inactive) | 75 µM (inactive) | 46.9 µM (inactive) |  | 42.7 µM (inactive) |
| COC(=O)C1CCCN1C(=O)OC(C)(C)C (centres undefined) | > 100 µM (inactive) | > 100 µM (inactive) | > 100 µM (inactive) | > 100 µM (inactive) | > 100 µM (inactive) | 23.3 µM (inactive) | > 100 µM (inactive) | > 100 µM (inactive) | > 100 µM (inactive) | > 100 µM (inactive) | > 100 | > 100 µM (inactive) | > 100 µM (inactive) | > 100 µM (inactive) |  |  |
| CN(NC(=O)/C(=C/c1ccc(Cl)cc1)NC(=O)c1ccccc1)c1cn[nH]c(=O)c1Cl |  | > 100 µM (inactive) | > 100 µM (inactive) | > 100 µM (inactive) | > 100 µM (inactive) | 19.9 µM (inactive) |  | > 100 µM (inactive) | 34 µM (inactive) | 31.1 µM (inactive) | > 100 | > 100 µM (inactive) | > 100 µM (inactive) | > 100 µM (inactive) | > 100 µM (inactive) | 12.7 µM (inactive) |
| O=C(CCN1CCN2c3ccccc3CCC2C1)c1ccc(F)cc1 (centres undefined) | 20 µM (inactive) | 42.8 µM (inactive) | 30.1 µM (inactive) | 34.7 µM (inactive) | 68.2 µM (inactive) | 57.3 µM (inactive) | 25.1 µM (inactive) | 23.3 µM (inactive) | 36 µM (inactive) | 34.8 µM (inactive) | 20.8 | 18.9 µM (inactive) | 48.6 µM (inactive) |  | 35.6 µM (inactive) | 28.5 µM (inactive) |
| O=CN1CCN(c2ccc3ccc(O)nc3n2)CC1 |  | > 100 µM (inactive) | > 100 µM (inactive) | > 100 µM (inactive) | > 100 µM (inactive) | > 100 µM (inactive) | > 100 µM (inactive) | > 100 µM (inactive) | > 100 µM (inactive) | > 100 µM (inactive) | > 100 | > 100 µM (inactive) | > 100 µM (inactive) | > 100 µM (inactive) | > 100 µM (inactive) | > 100 µM (inactive) |
| COc1ccc(/C=C2/SC(c3c(O)ccc4ccccc34)N(NC(=O)CCCCCCCCC(=O)NN3C(=O)/C(=C\c4ccc(OC)c(OC)c4)SC3c3c(O)ccc4ccccc34)C2=O)cc1OC (centres undefined) | 2.19 µM (inactive) | 1.48 µM (inactive) | 1.61 µM (inactive) | 2.37 µM (inactive) | 2.24 µM (inactive) | 0.176 µM (active) |  | 1.22 µM (inactive) | 1.77 µM (inactive) | 0.855 µM (active) | 0.871 | 0.519 µM (active) | 3.94 µM (inactive) | 12.8 µM (inactive) |  |  |
| Cc1nc(C)c(C(=O)NNC(=O)C[N+](C)(C)C)cc1C(=O)NNC(=O)C[N+](C)(C)C | 74.1 µM (inactive) |  | > 100 µM (inactive) | > 100 µM (inactive) | > 100 µM (inactive) |  | > 100 µM (inactive) | > 100 µM (inactive) | > 100 µM (inactive) | > 100 µM (inactive) | > 100 | > 100 µM (inactive) | > 100 µM (inactive) | > 100 µM (inactive) |  | 62.1 µM (inactive) |

Source: ChEMBL document CHEMBL1201862, “PubChem BioAssay data set” (2004)
